Measurements published in US12421249B2, “Inhibitors of APOL1 and methods of using same” (Vertex Pharmaceuticals Incorporated, priority 2020, dated 2025).

Molecular target: T1, APOL1 G1 (Homo sapiens, UniProt O14791, I384M/S342G)
T1 sequence (O14791 28-398 S342G/I384M): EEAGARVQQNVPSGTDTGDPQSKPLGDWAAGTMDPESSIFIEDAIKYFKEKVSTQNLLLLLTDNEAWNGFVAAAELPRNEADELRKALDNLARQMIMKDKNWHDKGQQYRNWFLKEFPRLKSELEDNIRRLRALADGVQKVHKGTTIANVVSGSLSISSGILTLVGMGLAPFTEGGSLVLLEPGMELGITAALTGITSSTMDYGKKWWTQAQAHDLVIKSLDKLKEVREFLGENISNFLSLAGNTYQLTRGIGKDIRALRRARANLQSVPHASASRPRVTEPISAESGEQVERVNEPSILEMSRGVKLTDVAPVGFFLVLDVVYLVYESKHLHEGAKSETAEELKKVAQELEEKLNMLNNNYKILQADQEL
Test: Trypanosoma brucei brucei Lysis Assay Using APOL1 Recombinant Protein (AlamarBlue viability readout)
Assay type: cell-based
Conditions: Trypanosome Assay
Summary of the method: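 Percent viability comes from AlamarBlue (resazurin→resorufin) fluorescence interpolated on a standard curve of known parasite numbers, with no-APOL1 wells as 100%. Parasites (Lister 427 bloodstream form, 120,000/well, serum-free assay medium) meet 0.05 μg/mL APOL1 (~EC90). Compounds span a 10-point series, 0.1% DMSO final.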

SMILES: [2H]C1([2H])O[C@@]2(C[C@@H](c3cn(C)nn3)N[C@@H](C)C2)c2sc(Cl)cc2[C@]1([2H])O [Compound 385, (2S,4S,4′S,6S)-2′-chloro-4′,5′,5′-trideuterio-2-methyl-6-(1-methyltriazol-4-yl)spiro[piperidine-4,7′-thieno[2,3-c]pyran]-4′-ol]
- IC50 (IP50 = IC50 for cell proliferation, read-out: Trypanosome Assay IP50): < 50 nM
- Emax (read-out: Trypanosome Assay Max Activity (%)): 104%
